Results as given in patent publication US9895349B2, “N-phenyl-carboxamide derivatives and the use thereof as medicaments for the treatment of hepatitis B” (priority 2013, dated 2018).

Tests used:
[1] = system: HBV; test: Anti-HBV activity, HepG2.2.15 stable transfected cell line, HBV DNA from secreted virions by realtime PCR; type: cell-based, Hepatitis B virus (HBV); conditions: HepG2.2.15 cells, 6 days of treatment
[2] = system: HepG2 cells; test: Cytotoxicity in HepG2 cells, Resazurin assay; conditions: read-out: HepG2 4 days CC50, 4 days incubation, Resazurin viability
[3] = system: HBV; test: Anti-HBV activity, HepG2.117 inducibly HBV producing cell line (Tet-off), intracellular HBV DNA by realtime PCR; type: cell-based, Hepatitis B virus (HBV); conditions: HepG2.117 cells, 3 days of treatment
[4] = in vitro; conditions: human
[5] = Cytotoxicity in HepG2 cells, Resazurin assay; conditions: human
[6] = Hepatitis B virus, HepG2.2.15, 144 h
[7] = Hepatitis B virus, HepG2.117, 72 h

SMILES: Cc1cc(NC(=O)[C@H]2CCN(S(C)(=O)=O)C2)ccc1F [Compound 4]
- EC50 [1]: 16.4 µM
- CC50 [2]: > 25 µM
- EC50 [3]: 10.7 µM

SMILES: Cc1cc(NC(=O)C2CCN(S(=O)(=O)C(C)CC(C)C)C2)ccc1F (mixture of isomers) [Compound 17]
- EC50 [1]: 5.9 µM
- CC50 [2]: > 25 µM
- EC50 [3]: 5.9 µM

SMILES: Cc1cc(NC(=O)C2CCN(S(=O)(=O)C3CS(=O)(=O)CC3O)C2)ccc1F (mixture of isomers) [Compound 15]
- EC50 [1]: 12.5 µM
- CC50 [2]: > 25 µM
- EC50 [3]: 14.7 µM

SMILES: Cc1cc(NC(=O)[C@H]2CCN(S(=O)(=O)C3CC3)C2)ccc1F [Compound 5]
- EC50 [1]: 9.1 µM
- CC50 [2]: > 25 µM
- EC50 [3]: 2 µM

SMILES: COCC(C)S(=O)(=O)N1CCC(C(=O)Nc2ccc(F)c(C)c2)C1 (mixture of isomers) [Compound 18]
- EC50 [1]: 5.8 µM
- CC50 [2]: > 25 µM
- EC50 [3]: 5.3 µM

SMILES: CCC(CC)S(=O)(=O)N1CC[C@H](C(=O)Nc2ccc(F)c(C)c2)C1 [Compound 19]
- EC50 [1]: 8.4 µM
- CC50 [2]: > 25 µM
- EC50 [3]: 2.9 µM

SMILES: Cc1cc(NC(=O)C2CCN(S(=O)(=O)C3CCS(=O)(=O)C3)C2)ccc1F (mixture of isomers) [Compound 13]
- EC50 [1]: 4.6 µM
- CC50 [2]: > 25 µM
- EC50 [3]: 3.4 µM

SMILES: Cc1cc(NC(=O)[C@H]2CCN(S(=O)(=O)C(C)C)C2)ccc1F [Compound 7]
- EC50 [1]: 13.5 µM
- CC50 [2]: > 25 µM
- EC50 [3]: 4.7 µM

SMILES: Cc1cc(NC(=O)C2(C)CCN(S(=O)(=O)CC(C)C)C2)ccc1F (racemic) [Compound 29b, N-(4-fluoro-3-methyl-phenyl)-1-isobutylsulfonyl-3-methyl-pyrrolidine-3-carboxamide]
- EC50 [1]: 18.3 µM
- CC50 [2]: > 25 µM
- EC50 [3]: 6.9 µM

SMILES: Cc1cc(NC(=O)C2(F)CCN(S(=O)(=O)NC(C)C)C2)ccc1F (racemic) [Compound 35b, 3-fluoro-N-(4-fluoro-3-methyl-phenyl)-1-(isopropylsulfamoyl)pyrrolidine-3-carboxamide]
- EC50 [1]: > 5 µM
- CC50 [2]: > 25 µM
- EC50 [3]: > 5 µM

SMILES: Cc1cc(NC(=O)[C@H]2CCN(C(=O)OC3COC3)C2)ccc1F [Compound 20]
- EC50 [1]: 16.1 µM
- CC50 [2]: > 25 µM
- EC50 [3]: 4 µM

SMILES: Cc1cc(NC(=O)C2(F)CCN(S(=O)(=O)N[C@H]3CCOC3)C2)ccc1F (single isomer, unassigned) [Compound 42b]
- EC50 [1]: 3.25 µM
- CC50 [2]: > 25 µM
- EC50 [3]: 1.69 µM

SMILES: Cc1cc(NC(=O)C2CCN(S(=O)(=O)C3CCCCC3O)C2)ccc1F (mixture of isomers) [Compound 16]
- EC50 [1]: 3.5 µM
- CC50 [2]: > 25 µM
- EC50 [3]: 2.5 µM

SMILES: COCCS(=O)(=O)N1CC[C@H](C(=O)Nc2ccc(F)c(C)c2)C1 [Compound 14]
- EC50 [1]: 1.9 µM
- CC50 [2]: > 25 µM
- EC50 [3]: 1.5 µM

SMILES: Cc1cc(NC(=O)[C@H]2CCN(C(=O)OC(C)C)C2)ccc1F [Compound 21]
- EC50 [1]: 5.4 µM
- CC50 [2]: > 25 µM
- EC50 [3]: 2.7 µM

SMILES: Cc1cc(NC(=O)C2(C)CCN(S(=O)(=O)CC(C)C)C2)ccc1F (racemic) [Compound 29a, N-(4-fluoro-3-methyl-phenyl)-1-isobutylsulfonyl-3-methyl-pyrrolidine-3-carboxamide]
- EC50 [1]: > 25 µM
- CC50 [2]: > 25 µM
- EC50 [3]: > 25 µM

SMILES: COC(=O)N1CC[C@H](C(=O)Nc2ccc(F)c(C)c2)C1 [Compound 22]
- EC50 [1]: 13.6 µM
- CC50 [2]: > 25 µM
- EC50 [3]: 8.6 µM

SMILES: Cc1cc(NC(=O)C2CN(S(=O)(=O)NC(C)C)C3CC23)ccc1F (single isomer, unassigned) [Compound 36b, N-(4-fluoro-3-methyl-phenyl)-2-(isopropylsulfamoyl)-2-azabicyclo[3.1.0]hexane-4-carboxamide]
- EC50 [1]: 0.46 µM
- CC50 [2]: > 25 µM
- EC50 [3]: 0.38 µM

SMILES: Cc1cc(NC(=O)[C@H]2C[C@@H]3CC[C@H]2N3S(=O)(=O)CC(C)C)ccc1F (racemic) [Compound 30, N-(4-fluoro-3-methyl-phenyl)-7-isobutylsulfonyl-7-azabicyclo[2.2.1]heptane-3-carboxamide]
- EC50 [1, 6]: 0.61 µM
- EC50 [3, 7]: 4.7 µM
- CC50 at 4 days [4]: > 25 µM

SMILES: Cc1cc(NC(=O)C2CCN(S(=O)(=O)C3CCOC3)C2)ccc1F (mixture of isomers) [Compound 12]
- EC50 [1]: 4.1 µM
- CC50 [2]: > 25 µM
- EC50 [3]: 2.3 µM

SMILES: Cc1cc(NC(=O)[C@H]2CCN(S(=O)(=O)N[C@@H]3c4ccccc4C[C@H]3O)C2)ccc1F [Compound 37, (3S)—N-(4-fluoro-3-methyl-phenyl)-1-[[(1R,2R)-2-hydroxyindan-1-yl]sulfamoyl]pyrrolidine-3-carboxamide]
- EC50 [1, 6]: 0.27 µM
- CC50 at 4 days [5]: > 25 µM
- EC50 [3, 7]: 0.53 µM

SMILES: Cc1cc(NC(=O)[C@H]2CCN(S(=O)(=O)C3CCCCC3)C2)ccc1F [Compound 23]
- EC50 [1]: 0.96 µM
- CC50 [2]: > 25 µM
- EC50 [3]: 1.4 µM

SMILES: O=C(Nc1ccc(F)c(F)c1)[C@H]1CCN(S(=O)(=O)N[C@H]2CCOC2)C1 [Compound 46, (3S)—N-(3,4-difluorophenyl)-1-[[(3S)-tetrahydrofuran-3-yl]sulfamoyl]pyrrolidine-3-carboxamide]
- EC50 [1, 6]: 0.6 µM
- CC50 at 4 days [5]: > 25 µM
- EC50 [3, 7]: 0.24 µM

SMILES: Cc1cc(NC(=O)[C@H]2CCN(S(=O)(=O)CC(C)C)C2)ccc1F [Compound 2, (3S)—N-(4-fluoro-3-methyl-phenyl)-1-isobutylsulfonyl-pyrrolidine-3-carboxamide]
- EC50 [1, 6]: 1.32 µM
- CC50 at 4 days [5]: > 25 µM
- EC50 [3, 7]: 0.31 µM
